Structures can show the parent of a compound that is named as a salt. Where two headings read alike, the source gives them in different places.

One data set has as its system blood pressure of SHR. The data set is described as follows: Antihypertensive effect by single administration, SHR, direct cannulation. The following applies: for Rate of Effects (relative to MR): from DB20; for ED (20% blood pressure decrease): Rattus norvegicus, read-out: DB20 (20% blood pressure descending dose). It is filed as in vivo, rat (spontaneously hypertensive rats. The protocol: The effect was examined through both direct and modified tail-cuff methods using male SHRs aged 25 to 30 weeks and weighing about 300 g.
In the direct cannulation method, polyethylene cannules were inserted in femoral arteries of the conscious unanesthesized SHRs under back-fixation,and MR solution was administered in an amount of 0.1 mg/100 g of weight for venous injection, and 1 ml/100 g of weight for oral administration. Changes in the blood pressure over 6 hours were measured with a multi-purpose polygraph RM-85 made by NIHON KODEN Co., Ltd. MR was dissolved in 0.9% NaCl aqueous solution with 1 N-HCl, and the solution was neutralized for use.

The nature of the next data set: in vivo. It is filed as in vivo, rat (SD (SPF)). The following applies: rat, in vivo; oral sub-acute, rats; read-out: ineffective dose. As to the method: All the rats were observed daily and general symptoms noted. Weight was measured daily, average food-intake once every three days, and average water-intake once every two days.
In another data set the test system is rats. The following applies: in connection with RCN; cited from earlier work.
For data set [1] the following is noted: converted from FIG. 15 data to 20 mg/kg basis.
Protocol: Blood was drawn from branchial vein of dogs, vein of ear of rabbits and carotic artery of rats after slaughter. Urine was collected with urine bladder catheter for rabbits and metabolic cages for rats. Gathering bile was performed with biliary duct cannulation without anesthesia.
In a further data set the test system is hypertension. As to conditions: cited from earlier work; for antihypertensive effect / side effects: remedies for hypertension.

On to `COc1cc2[nH]c3c(c2cc1OC)CCN1C[C@H]2[C@H](C)OC=C(C(=O)OCCN(C)C)[C@H]2C[C@H]31.Cl.Cl` [Dimethylaminoethyl reserpilinate dihydrochloride], for which, in the data set with blood pressure of SHR (I.V.), the “DB20 (20% blood pressure descending dose)” value is recorded as 415.7 mg/kg and the “Rate of Effects (relative to MR)” value is on record as 0.01. In the data set on blood pressure of SHR (P.O.), the “DB20 (20% blood pressure descending dose)” value is recorded as 625.2 mg/kg and the “Rate of Effects (relative to MR)” value came out at 0.02.
Turning to `C[N+](C)(C)CCCCCC[N+](C)(C)C` [Hexamethonium chloride], the “Rate of Effects (relative to MR)” value in the data set on blood pressure of SHR (I.V.) is recorded as 0.08; with blood pressure of SHR (P.O.), 0.04. The ED (20% blood pressure decrease) in the data set with blood pressure of SHR (iv) was found to be 39.7 mg/kg; with blood pressure of SHR (po), 320 mg/kg.
The like results for `NNc1nncc2ccccc12` [Hydralazine hydrochloride] were, in that order, 11.7, 1.85, 0.3 mg/kg and 6.4 mg/kg.
On to `C[C@](N)(Cc1ccc(O)c(O)c1)C(=O)O` [L-alpha-methyl-dopa], for which the “Rate of Effects (relative to MR)” value in the data set on blood pressure of SHR (I.V.) and in the data set with blood pressure of SHR (P.O.) was 0.01 each time. Moreover, the ED (20% blood pressure decrease) in the data set on blood pressure of SHR (iv, I.V.) came to 303 mg/kg; with blood pressure of SHR (po, P.O.) it was 1740 mg/kg.
`COC(=O)[C@H]1[C@H]2C[C@@H]3c4[nH]c5cc(OC)ccc5c4CCN3C[C@H]2C[C@@H](OC(=O)/C=C/c2cc(OC)c(OC)c(OC)c2)[C@@H]1OC` [RCN, Rescinnamin]: the NOAEL in “in vivo” is 6 mg/kg. Also, the ED (20% blood pressure decrease) was 1.3 mg/kg with blood pressure of SHR (iv) and 9.7 mg/kg with blood pressure of SHR (po). Moreover, the “pathological changes in adrenal and liver” value in the data set on rats is “not reported”. Moreover, the “Area under the Curve of MR Content in Serum” value in data set [1] amounted to 20.2. Besides, the antihypertensive effect result in the data set with hypertension is on record as “prolonged antihypertensive effect”. The side effects result in the data set with hypertension was “uneasiness due to central nervous system depression, depressed state and loss of vitality”. Besides, the “pathological change of stomach mucous” value in the data set on hypertension (when RCN is used) is recorded as “often occurs”.
In the case of `COC(=O)[C@H]1[C@H]2C[C@@H]3c4[nH]c5cc(OC)ccc5c4CCN3C[C@H]2C[C@@H](OC(=O)c2cc(OC)c(OC)c(OC)c2)[C@@H]1OC` [RSP, Reserpine], the “Rate of Effects (relative to MR)” value in the data set with blood pressure of SHR (I.V.) was 17.7; with blood pressure of SHR (P.O.) it was 3.11. The ED (20% blood pressure decrease) in the data set with blood pressure of SHR (iv) was 0.2 mg/kg; with blood pressure of SHR (po), 3.8 mg/kg. The antihypertensive effect entry in the data set on hypertension is reported as “prolonged antihypertensive effect”. Further, the side effects entry with hypertension is “uneasiness due to central nervous system depression, depressed state and loss of vitality”.
Consider `NS(=O)(=O)c1cc2c(cc1Cl)NC(C(Cl)Cl)NS2(=O)=O` (stereo not shown) [Trichlormethiazide], for which the “Rate of Effects (relative to MR)” value in the data set on blood pressure of SHR (I.V.) amounted to 0.05; with blood pressure of SHR (P.O.), 0.07. Also, the ED (20% blood pressure decrease) with blood pressure of SHR (iv, I.V.) was 79.8 mg/kg; in the data set on blood pressure of SHR (po, P.O.), 150 mg/kg.
